Measured values reported in patent publication US3985738A, “7-(D-. alpha.-Hydroxy-2-arylacetamido)-3-(tetrazolo-[4,5-b]pyridazin-6-ylthiomet hyl)-3-cephem-4-carboxylic acids” (Bristol-Myers Company, priority 1974, dated 1976).
Converted amounts (≈) assume the structure as drawn.

Assays:
Assay in all cases: In vitro antibacterial activity, tube dilution method (Nutrient Broth)
Type in all cases: cell-based
[1] = system: E. coli Juhl A15119; details: Escherichia coli, JUHLA15119
Description: (§1) In vitro Antibacterial Activity of BB-S266 by Tube Dilution Method (Nutrient Broth).

[2] = system: Pr. morganii A15153; details: Morganella morganii
Description: as §1

[3] = system: E. coli NIHJ; details: Escherichia coli
Description: as §1

[4] = system: Sal. enteritidis A9531; details: Salmonella enterica
Description: as §1

[5] = system: S. aureus BX-1633; details: Staphylococcus aureus, BX1633
Description: as §1

[6] = system: S. aureus Russel; details: Staphylococcus aureus
Description: as §1

[7] = system: Pr. mirabilis A9900; details: Proteus mirabilis
Description: as §1

[8] = system: S. aureus Smith; details: Staphylococcus aureus
Description: as §1

[9] = system: Ps. aeruginosa A9843; details: Pseudomonas aeruginosa
Description: as §1

[10] = system: Ser. marcescens A20019; details: Serratia marcescens
Description: as §1

[11] = system: St. pyogenes A9604; details: Streptococcus pyogenes
Description: as §1

[12] = system: E. coli ATCC 8739; details: Escherichia coli, ATCC8739
Description: as §1

[13] = system: Mycobacterium 607
Description: as §1

[14] = system: Kl. pneumoniae A9977; details: Klebsiella pneumoniae
Description: as §1

[15] = system: Kl. pneumoniae A15130; details: Klebsiella pneumoniae
Description: as §1

[16] = system: Dip. pneumoniae; details: Streptococcus pneumoniae
Description: as §1

## O=C(O)C1=C(CSc2ccc3nnnn3n2)CS[C@@H]2C(NC(=O)[C@H](O)c3ccccc3)C(=O)N12 (stereo partly drawn) [BB-S266, 7-(D-α-HYDROXY-α-PHENYLACETAMIDO)-3-(TETRAZOLO[4,5-B]PYRIDAZIN-6-YLTHIOMETHYL)-3-CEPHEM-4-CARBOXYLIC ACID]
[1]
  MIC: 3.1 µg/mL (≈ 6.21 µM)
[2]
  MIC: 50 µg/mL (≈ 100 µM)
[3]
  MIC: 0.08 µg/mL (≈ 0.16 µM)
[4]
  MIC: 0.4 µg/mL (≈ 0.801 µM)
[5]
  MIC: 0.8 µg/mL (≈ 1.6 µM)
[6]
  MIC: 0.4 µg/mL (≈ 0.801 µM)
[7]
  MIC: 6.3 µg/mL (≈ 12.6 µM)
[8]; S. aureus Smith
  MIC: 0.1 µg/mL (≈ 0.2 µM)
[8]; S. aureus Smith + 50% serum
  MIC: 0.2 µg/mL
[9]
  MIC: < 100 µg/mL
[10]
  MIC: 100 µg/mL (≈ 200 µM)
[11]
  MIC: 0.01 µg/mL (≈ 0.02 µM)
[12]
  MIC: 1.6 µg/mL (≈ 3.2 µM)
[13]
  MIC: < 100 µg/mL
[14]
  MIC: 3.1 µg/mL (≈ 6.21 µM)
[15]
  MIC: 3.1 µg/mL (≈ 6.21 µM)
[16]
  MIC: 0.01 µg/mL (≈ 0.02 µM)
